For this assay, the target named is T1, horseradish peroxidase (HRP) tagged delF508-CFTR (Homo sapiens, UniProt P13569, DEL508-508).
T1 construct: expressed in transfected cells
Put plainly: Measurement of delF508-CFTR-HRP surface expression in CFBE41o- cells.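 For DelF508-CFTR-HRP Amax %: percent efficacy relative to reference corrector lumacaftor.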 The class given is cell-based. As to conditions: delF508-CFTR-HRP surface expression, CFBE41o- cells; for Emax: read-out: DelF508-CFTR-HRP Amax %; for EC50: read-out: DelF508-CFTR-HRP EC50. An outline of the steps: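 CFBE41o- bronchial epithelial cells stably expressing delF508-CFTR with HRP in the fourth extracellular loop; expression induced 48h with 500 ng/mL doxycycline, then compounds added (top 10 μM, 10-point 3-fold series, ≤0.5% DMSO) for 24h at 37° C. Surface HRP measured by luminescence with cell-impermeant substrate; EC50 from logistic fit of triplicates, plate-normalized to lowest concentration; efficacy also relative to a reference corrector.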

Structures can show the parent of a compound that is named as a salt.

T1 sequence (P13569 with tags, fused parts or gaps DEL508-508): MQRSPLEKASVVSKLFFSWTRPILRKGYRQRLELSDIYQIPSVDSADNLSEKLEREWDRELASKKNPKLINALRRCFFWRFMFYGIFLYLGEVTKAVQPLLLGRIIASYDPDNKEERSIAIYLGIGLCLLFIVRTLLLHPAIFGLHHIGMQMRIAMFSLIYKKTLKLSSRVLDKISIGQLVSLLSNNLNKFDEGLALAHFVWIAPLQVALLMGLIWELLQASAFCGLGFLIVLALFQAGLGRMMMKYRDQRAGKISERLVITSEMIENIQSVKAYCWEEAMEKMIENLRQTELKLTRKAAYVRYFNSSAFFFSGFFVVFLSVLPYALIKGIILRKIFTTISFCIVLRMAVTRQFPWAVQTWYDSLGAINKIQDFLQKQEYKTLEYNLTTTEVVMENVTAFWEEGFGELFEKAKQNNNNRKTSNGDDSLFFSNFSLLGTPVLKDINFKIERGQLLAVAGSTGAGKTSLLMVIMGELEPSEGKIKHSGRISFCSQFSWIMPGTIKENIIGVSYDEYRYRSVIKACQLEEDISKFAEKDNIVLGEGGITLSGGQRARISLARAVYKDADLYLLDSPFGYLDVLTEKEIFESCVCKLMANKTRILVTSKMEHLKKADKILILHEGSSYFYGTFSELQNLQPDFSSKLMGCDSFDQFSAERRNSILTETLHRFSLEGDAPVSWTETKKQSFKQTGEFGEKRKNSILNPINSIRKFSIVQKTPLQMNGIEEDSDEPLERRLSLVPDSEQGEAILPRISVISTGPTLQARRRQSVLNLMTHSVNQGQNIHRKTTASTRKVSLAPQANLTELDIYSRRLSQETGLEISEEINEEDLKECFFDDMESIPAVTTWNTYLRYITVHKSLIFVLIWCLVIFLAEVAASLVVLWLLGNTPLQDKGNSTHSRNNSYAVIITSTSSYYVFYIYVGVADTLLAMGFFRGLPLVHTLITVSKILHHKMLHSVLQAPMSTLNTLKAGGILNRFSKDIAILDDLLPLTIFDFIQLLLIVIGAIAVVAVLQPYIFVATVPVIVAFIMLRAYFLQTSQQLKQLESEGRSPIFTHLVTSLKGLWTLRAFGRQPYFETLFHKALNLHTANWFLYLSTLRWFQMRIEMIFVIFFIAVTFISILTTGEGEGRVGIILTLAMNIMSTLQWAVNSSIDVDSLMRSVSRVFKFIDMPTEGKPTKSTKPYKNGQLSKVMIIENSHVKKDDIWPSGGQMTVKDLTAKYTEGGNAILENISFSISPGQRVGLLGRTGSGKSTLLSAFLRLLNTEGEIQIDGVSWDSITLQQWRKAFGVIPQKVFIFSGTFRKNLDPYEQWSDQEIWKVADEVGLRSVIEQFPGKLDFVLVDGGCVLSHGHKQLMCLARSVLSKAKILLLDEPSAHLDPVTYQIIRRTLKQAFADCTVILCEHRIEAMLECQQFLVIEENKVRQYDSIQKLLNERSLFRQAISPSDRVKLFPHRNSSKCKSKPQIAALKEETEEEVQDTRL

As for `Cc1cc(C#N)ccc1-c1nc(NS(=O)(=O)c2ccnc(N)c2)ccc1Cl` [Example 92, 2-amino-N-(5-chloro-6-(4-cyano-2-methylphenyl)pyridin-2-yl)pyridine-4-sulfonamide], the Emax was 23.9% and the concentration giving a half-maximal response (EC50) (as a rule, the concentration giving half of the maximal effect) stood at 1.11 µM.

As to `Cc1cccc(C)c1-c1ccc(F)c(NS(=O)(=O)c2cccc(N)n2)n1` [Example 93, 6-amino-N-(6-(2,6-dimethylphenyl)-3-fluoropyridin-2-yl)pyridine-2-sulfonamide], the Emax came out at 23.5% and the EC50 is 3.55 µM.

As for `Nc1cccc(S(=O)(=O)Nc2ccc(Cl)c(-c3ccc(C(F)(F)F)cc3)n2)n1` [Example 94, 6-amino-N-(5-chloro-6-(4-(trifluoromethyl)phenyl)pyridin-2-yl)pyridine-2-sulfonamide], the Emax came out at 20.3% and the 50% effective concentration (EC50) turned out to be 3.19 µM.

With `Cc1cccc(C)c1-c1nc(NS(=O)(=O)c2cccc(N)n2)c(F)cc1Cl` [Example 95, 6-amino-N-(5-chloro-6-(2,6-dimethylphenyl)-3-fluoropyridin-2-yl)pyridine-2-sulfonamide], the Emax was 19% and the EC50 amounted to 3.75 µM.

`Cc1cccc(C)c1-c1ccc(Cl)c(NS(=O)(=O)c2cccc(N)n2)n1` [Example 96, 6-amino-N-(3-chloro-6-(2,6-dimethylphenyl)pyridin-2-yl)pyridine-2-sulfonamide]: the Emax came out at 10% and the half-maximal effective concentration (EC50) came out at 4.33 µM.

As for `Cc1ccccc1-c1nc(NS(=O)(=O)c2cccc(N[C@@H]3CCNC[C@H]3O)n2)ccc1C(F)(F)F` [Example 114, 6-(((3R,4R)-3-hydroxypiperidin-4-yl)amino)-N-(6-(o-tolyl)-5-(trifluoromethyl)pyridin-2-yl)pyridine-2-sulfonamide Hydrochloride], the Emax came out at 66.2% and the EC50 was 3.63 µM.

For `Cc1ccccc1-c1nc(NS(=O)(=O)c2cccc(N[C@H]3CCNC3)n2)ccc1C(F)(F)F` [Example 124, (S)-6-(pyrrolidin-3-ylamino)-N-(6-(o-tolyl)-5-(trifluoromethyl)pyridin-2-yl)pyridine-2-sulfonamide Hydrochloride], the Emax amounted to 148% and the 50% effective concentration (EC50) is 4.61 µM.

For `O=S(=O)(Nc1ccc(Cl)c(-c2ccccc2C(F)(F)F)n1)c1cccc(N[C@@H]2COC[C@H]2O)n1` [Example 126, N-(5-chloro-6-(2-(trifluoromethyl)phenyl)pyridin-2-yl)-6-(((3R,4S)-4-hydroxytetrahydrofuran-3-yl)amino)pyridine-2-sulfonamide], the Emax stood at 235% and the concentration for a half-maximal effect (EC50) is 2.18 µM.

`Cc1cccc(C)c1-c1cc(C(F)(F)F)cc(NS(=O)(=O)c2cccc(N3CCN(C(=O)OC(C)(C)C)CC3)n2)n1` [Example 132, tert-butyl 4-(6-(N-(6-(2,6-dimethylphenyl)-4-(trifluoromethyl)pyridin-2-yl)sulfamoyl)pyridin-2-yl)piperazine-1-carboxylate]: the Emax came to 894% and the 50% effective concentration (EC50) is 0.803 µM.

For the compound `Cc1ccccc1-c1nc(NS(=O)(=O)c2cccc(N3CCN4CC(F)(F)C[C@H]4C3)n2)ccc1C(F)(F)F` [Example 136, (S)-6-(7,7-difluorohexahydropyrrolo[1,2-a]pyrazin-2(1H)-yl)-N-(6-(o-tolyl)-5-(trifluoromethyl)pyridin-2-yl)pyridine-2-sulfonamide], the Emax is 862% and the EC50 stood at 1.11 µM.

Consider `Cc1ccccc1-c1nc(NS(=O)(=O)c2cccc(N3CCN4C[C@@H](F)C[C@H]4C3)n2)ccc1C(F)(F)F` [Example 137, 6-((7S,8aS)-7-fluorohexahydropyrrolo[1,2-a]pyrazin-2(1H)-yl)-N-(6-(o-tolyl)-5-(trifluoromethyl)pyridin-2-yl)pyridine-2-sulfonamide], for which the Emax was determined as 854% and the concentration giving a half-maximal response (EC50) was 1.35 µM.

Take `COc1cc(NS(=O)(=O)c2cccc(N3CCNCC3)n2)nc(-c2c(C)cccc2C)c1` [Example 139, N-(6-(2,6-dimethylphenyl)-4-methoxypyridin-2-yl)-6-(piperazin-1-yl)pyridine-2-sulfonamide]: the Emax amounted to 53.2% and the EC50 is 4.97 µM.

Consider `Cc1ccc(F)cc1-c1nc(NS(=O)(=O)c2cccc(N3CCN(C(C)(C)C)CC3)n2)ccc1C(F)(F)F` [Example 143, 6-(4-(tert-butyl)piperazin-1-yl)-N-(6-(5-fluoro-2-methylphenyl)-5-(trifluoromethyl)pyridin-2-yl)pyridine-2-sulfonamide], for which the Emax is 888% and the EC50 was 2.99 µM.

For `Cc1c(F)cccc1-c1nc(NS(=O)(=O)c2cccc(N3CCn4cnnc4C3)n2)ccc1Cl` [Example 146, N-(5-chloro-6-(3-fluoro-2-methylphenyl)pyridin-2-yl)-6-(5,6-dihydro-[1,2,4]triazolo[4,3-a]pyrazin-7(8H)-yl)pyridine-2-sulfonamide], the Emax was 59.1% and the EC50 is 4.28 µM.

On to `O=S(=O)(Nc1ccc(C(F)(F)F)c(-c2ccc(F)cc2Cl)n1)c1cccc(N2CCNCC2)n1` [Example 153, N-(6-(2-Chloro-4-Fluorophenyl)-5-(Trifluoromethyl)Pyridin-2-yl)-6-(Piperazin-1-yl)Pyridine-2-Sulfonamide Hydrochloride], for which the Emax stood at 159% and the half-maximal effective concentration (EC50) is 3.8 µM.

Take `O=S(=O)(Nc1ccc(C(F)(F)F)c(-c2cccc(F)c2Cl)n1)c1cccc(N2CCNCC2)n1` [Example 155, N-(6-(2-chloro-3-fluorophenyl)-5-(trifluoromethyl)pyridin-2-yl)-6-(piperazin-1-yl)pyridine-2-sulfonamide hydrochloride]: the Emax was 196% and the EC50 was determined as 4.4 µM.

Turning to `O=S(=O)(Nc1ccc(Cl)c(-c2ccccc2Cl)n1)c1cccc(N2CCNCC2)n1` [Example 156, N-(5-chloro-6-(2-chlorophenyl)pyridin-2-yl)-6-(piperazin-1-yl)pyridine-2-sulfonamide], the Emax worked out at 178% and the concentration giving a half-maximal response (EC50) was 4.03 µM.

For the compound `O=S(=O)(Nc1ccc(Cl)c(-c2ccc(F)cc2Cl)n1)c1cccc(N2CCNCC2)n1` [Example 157, N-(5-chloro-6-(2-chloro-4-fluorophenyl)pyridin-2-yl)-6-(piperazin-1-yl)pyridine-2-sulfonamide], the Emax turned out to be 180% and the EC50 amounted to 4.28 µM.

With `O=S(=O)(Nc1ccc(Cl)c(-c2cccc(F)c2Cl)n1)c1cccc(N2CCNCC2)n1` [Example 159, N-(5-chloro-6-(2-chloro-3-fluorophenyl)pyridin-2-yl)-6-(piperazin-1-yl)pyridine-2-sulfonamide hydrochloride], the Emax is 130% and the concentration for a half-maximal effect (EC50) stood at 4.42 µM.

On to `Cc1ccc(C(F)(F)F)cc1-c1nc(NS(=O)(=O)c2cccc(N3CCN(C(=O)OC(C)(C)C)CC3)n2)ccc1Cl` [Example 168, tert-butyl 4-(6-(N-(5-chloro-6-(2-methyl-5-(trifluoromethyl)phenyl)pyridin-2-yl)sulfamoyl)pyridin-2-yl)piperazine-1-carboxylate], for which the Emax was 271% and the EC50 came out at 0.626 µM.

Regarding `Cc1cccc(C)c1-c1nc(NS(=O)(=O)c2cccc(N3CCN(C(=O)OC(C)(C)C)CC3=O)n2)ccc1Cl` [Example 188, tert-butyl 4-(6-(N-(5-chloro-6-(2,6-dimethylphenyl)pyridin-2-yl)sulfamoyl)pyridin-2-yl)-3-oxopiperazine-1-carboxylate], the Emax was 658% and the EC50 stood at 0.971 µM.

The record behind these values is patent publication US11066369B2, “N-(pyridin-2-yl)pyridine-sulfonamide derivatives and their use in the treatment of disease” (Novartis AG, priority 2016, dated 2021).
